Experimental data as given in ChEMBL document CHEMBL1144903, “Generation of predictive pharmacophore models for CCR5 antagonists: study with piperidine- and piperazine-based compounds as a new class of HIV-1 entry inhibitors” (J Med Chem, 2003).

Biological target: C-C chemokine receptor type 5 (Homo sapiens, UniProt P51681)
Assay: Inhibition of RANTES binding to the human C-C chemokine receptor type 5 (CCR5)

C-C chemokine receptor type 5, sequence (P51681 whole entry): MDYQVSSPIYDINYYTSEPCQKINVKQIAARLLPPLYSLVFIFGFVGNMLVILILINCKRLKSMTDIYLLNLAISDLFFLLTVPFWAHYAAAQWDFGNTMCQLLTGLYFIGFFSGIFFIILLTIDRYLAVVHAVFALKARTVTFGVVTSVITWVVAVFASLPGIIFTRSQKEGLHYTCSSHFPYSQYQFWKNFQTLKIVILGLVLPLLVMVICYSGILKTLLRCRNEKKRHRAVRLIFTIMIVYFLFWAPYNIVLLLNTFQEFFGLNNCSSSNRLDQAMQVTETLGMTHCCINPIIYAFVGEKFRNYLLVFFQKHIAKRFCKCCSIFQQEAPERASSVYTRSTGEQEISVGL

SMILES	Ki [nM]
Cc1cccc(C)c1C(=O)N1CCC(C)(N2CCC(Cc3ccc(I)cc3)CC2)CC1	33
CCO/N=C(/c1ccc(Br)cc1)C1CCN(C2(C)CCN(C(=O)c3c(C)cc(O)nc3C)CC2)CC1	7
CCO/N=C(/c1ccc(Cl)cc1)C1CCN(C2(C)CCN(C(=O)c3c(C)cc[n+]([O-])c3C)CC2)CC1	5.6
Cc1cccc(C)c1C(=O)N1CCC(C)(N2CCC(C(C)c3ccc(Br)cc3)CC2)CC1 (configuration not stated)	62
CCO/N=C(/c1ccc(Br)cc1)C1CCN(C2(C)CCN(C(=O)c3c(C)cc[nH]c3=O)CC2)CC1	> 30
CCO/N=C(/c1ccc(Br)cc1)C1CCN(C2(C)CCN(C(=O)c3cccnc3C)CC2)CC1	26
CCO/N=C(/c1ccc(Br)cc1)C1CCN(C2(C)CCN(C(=O)c3c(Cl)c[n+]([O-])cc3Cl)CC2)CC1	1.2
Cc1cccc(C)c1C(=O)N1CCC(C)(N2CCC(/C(=N\Oc3ccccc3)c3ccc(Br)cc3)CC2)CC1	> 30
CCO/N=C(/c1ccc(Br)cc1)C1CCN(C2(C)CCN(C(=O)c3c(C)cccc3C)CC2)CC1	2
CCO/N=C(/c1ccc(S(C)(=O)=O)cc1)C1CCN(C2(C)CCN(C(=O)c3c(C)cc[n+]([O-])c3C)CC2)CC1	20
Cc1cccc(C)c1C(=O)N1CCC(C)(N2CCC(Cc3ccc(S(C)(=O)=O)cc3)CC2)CC1	33
COc1ccc(CC2CCN(C3(C)CCN(C(=O)c4c(C)cccc4C)CC3)CC2)cc1	155
CO/N=C(/c1ccc(Br)cc1)C1CCN(C2(C)CCN(C(=O)c3c(C)cccc3C)CC2)CC1	2
CCO/N=C(/c1ccc(Br)cc1)C1CCN(C2(C)CCN(C(=O)c3ccc[n+]([O-])c3)CC2)CC1	> 30
Cc1cccc(C)c1C(=O)N1CCC(C)(N2CCN([C@@H](C)c3ccc(C(F)(F)F)cc3)[C@@H](C)C2)CC1	1
Cc1cccc(C)c1C(=O)N1CCC(C)(N2CCC(/C(=N\OC(C)(C)C)c3ccc(Br)cc3)CC2)CC1	9
Cc1cccc(O)c1C(=O)N1CCC(C)(N2CCN([C@@H](C)c3ccc(I)cc3)[C@@H](C)C2)CC1	7
CCO/N=C(/c1ccc(F)cc1)C1CCN(C2(C)CCN(C(=O)c3c(C)cc[n+]([O-])c3C)CC2)CC1	30
CCO/N=C(/c1ccc(Br)cc1)C1CCN(C2(C)CCN(C(=O)c3c(C)ccc[n+]3[O-])CC2)CC1	16
CCO/N=C(/c1ccc(Br)cc1)C1CCN(C2(C)CCN(C(=O)c3c(C)c[n+]([O-])cc3C)CC2)CC1	8.8
C[C@H]1CN(C2CCN(C(=O)c3c(F)cccc3I)CC2)CCN1[C@@H](C)c1ccc(I)cc1	1300
C[C@H]1CN(C2(C)CCN(C(=O)c3c(N)cccc3Cl)CC2)CCN1[C@@H](C)c1ccc(I)cc1	12
Cc1cccc(C)c1C(=O)N1CCC(C)(N2CCC(Cc3ccc(-c4ccccc4)cc3)CC2)CC1	360
CCO/N=C(/c1ccc(Br)cc1)C1CCN(C2(C)CCN(C(=O)c3c(C)ncnc3C)CC2)CC1	2.2

SMILES	Ki [nM]
Cc1cccc(C)c1C(=O)N1CCC(C)(N2CCC(/C(=N\OC(C)C)c3ccc(Br)cc3)CC2)CC1	4
CCO/N=C(/c1ccc(C(F)(F)F)cc1)C1CCN(C2(C)CCN(C(=O)c3c(C)cc[n+]([O-])c3C)CC2)CC1	3.8
CCO/N=C(/c1ccc(Br)cc1)C1CCN(C2(C)CCN(C(=O)c3c(C)cc(C)nc3O)CC2)CC1	43
CCO/N=C(/c1ccc(Br)cc1)C1CCN(C2(C)CCN(C(=O)c3cccnc3)CC2)CC1	> 30
CO/N=C(/c1ccc(Br)cc1)C1CCN(C2(C)CCN(C(=O)c3c(N)cccc3Cl)CC2)CC1	3.4
CO/N=C(/c1ccc(Br)cc1)C1CCN(C2(C)CCN(C(=O)c3c(C)ncnc3C)CC2)CC1	4.7
CO/N=C(/c1ccc(Br)cc1)C1CCN(C2(C)CCN(C(=O)c3c(C)cc[n+]([O-])c3C)CC2)CC1	19
CO/N=C(/c1ccc(Br)cc1)C1CCN(C2(C)CCN(C(=O)c3c(C)cccc3N)CC2)CC1	4.5
Cc1cccc(C)c1C(=O)N1CCC(C)(N2CCC(Cc3ccc(OC(F)(F)F)cc3)CC2)CC1	55
CCO/N=C(/c1ccc(Br)cc1)C1CCN(C2(C)CCN(C(=O)c3c(Br)c[n+]([O-])cc3Br)CC2)CC1	0.7
Cc1cccc(C)c1C(=O)N1CCC(C)(N2CCC(Cc3ccc(Cl)cc3)CC2)CC1	68
CCO/N=C(/c1ccc(Br)cc1)C1CCN(C2(C)CCN(C(=O)c3c(C)cncc3C)CC2)CC1	2.3
CCO/N=C(/c1ccc(Br)cc1)C1CCN(C2(C)CCN(C(=O)c3c(C)ccnc3C)CC2)CC1	1.1
CCO/N=C(/c1ccc(Br)cc1)C1CCN(C2(C)CCN(C(=O)c3c(C)cc(-c4ccncc4)cc3C)CC2)CC1	0.1
CCO/N=C(/c1ccc(Br)cc1)C1CCN(C2(C)CCN(C(=O)c3c(F)cccc3C(F)(F)F)CC2)CC1	3
Cc1cccc(C)c1C(=O)N1CCC(C)(N2CCC(Cc3ccc(C(F)(F)F)cc3)CC2)CC1	25
C=C(c1ccc(Br)cc1)C1CCN(C2(C)CCN(C(=O)c3c(C)cccc3C)CC2)CC1	8
CNC(=O)CO/N=C(/c1ccc(Br)cc1)C1CCN(C2(C)CCN(C(=O)c3c(C)cccc3C)CC2)CC1	33
Cc1ccc(CC2CCN(C3(C)CCN(C(=O)c4c(C)cccc4C)CC3)CC2)cc1	110
CO/N=C(/c1ccc(Br)cc1)C1CCN(C2(C)CCN(C(=O)c3c(C)ccnc3C)CC2)CC1	1.1
CCO/N=C(/c1ccc(Br)cc1)C1CCN(C2(C)CCN(C(=O)c3ccc[n+]([O-])c3C)CC2)CC1	> 30
CCOC(=O)CO/N=C(/c1ccc(Br)cc1)C1CCN(C2(C)CCN(C(=O)c3c(C)cccc3C)CC2)CC1	33
CO/N=C(/c1ccc(S(C)(=O)=O)cc1)C1CCN(C2(C)CCN(C(=O)c3c(C)cc[n+]([O-])c3C)CC2)CC1	30
